Source: patent US8669206B2, “Composition and method for controlling arthropod pests” (Sumitomo Chemical Company, Limited, priority 2009, dated 2014)

Assays:
Assay type in all cases: in vivo
Pseudaletia separata [1] = assay: Test Example 1: control of Pseudaletia separata larvae on rice seedlings, treatment at the foot of the seedlings; conditions: single compound, 5 mL/cup, larvae released after 2 days, counted after 3 days
Method: The compound I was dissolved in water to prepare an aqueous solution having a prescribed concentration. Also, the compound (1) (Coragen (registered trademark), product of DuPont) was diluted with water to prepare a chemical solution of the compound. These solutions were appropriately mixed to prepare a test mixed chemical solution having a prescribed concentration of the compound I and the compound (1).
(§1) A 90 mL plastic cup was filled with cultivation soil and 15 rice seeds were sown.
(§2) Two weeks after seedlings emerged, the foot of rice seedlings were treated with the test mixed chemical solution (5 mL/plastic cup). After 2 days, 30 of first-instar larvae of Pseudaletia separata were released per plastic cup. After 3 days, the number of surviving larvae was counted and the control rate was calculated using the equation A.
For comparison, tests were conducted in the same manner using a test aqueous solution having a prescribed concentration of the compound I, prepared by diluting an aqueous solution of the compound I with water, and a test aqueous solution having a prescribed concentration of the compound (1), prepared by diluting an aqueous solution of the compound (1) with water.
(§3) Control rate=100×(1−[(Ts/30)/(Cs/30)]) “Equation A” Ts and Cs represent the number of surviving larvae in a treated group and that in a non-treated group, respectively. Provided that, when the control rate is less than 0 (Ts>Cs), it is indicated by 0.

Pseudaletia separata [2] = assay: Test Example 2: control of Pseudaletia separata larvae on rice seedlings, treatment at the foot of the seedlings; conditions: single compound, 5 mL/cup, larvae released after 2 days, counted after 3 days
Method: as §3
(§4) The compound I was dissolved in water to prepare an aqueous solution having a prescribed concentration. Also, the compound (2) was dissolved in a mixed solution (44:1) of acetone and Tween 20, followed by dilution with water to prepare a chemical solution. These solutions were appropriately mixed to prepare a test mixed chemical solution having a prescribed concentration of the compound I and the compound (2).
as §1
as §2, with “A in the same manner as in Test Example 1.” for “A.”
(§5) For comparison, tests were conducted in the same manner using a test aqueous solution having a prescribed concentration of the compound I, prepared by diluting an aqueous solution of the compound I with water, and a test chemical solution having a prescribed concentration of the compound (2), prepared by dissolving the compound (2) in a mixed solution (1:9) of acetone and Tween 20, followed by dilution with water.

Pseudaletia separata [3] = assay: Test Example 3: control of Pseudaletia separata larvae on rice seedlings treated with chemical solution and air dried; conditions: single compound, 20 mL/cup, larvae released after air drying, counted after 3 days
Method: as §3
as §4, with “(3)” for “(2)”, “(3).” for “(2).”
A 90 mL plastic cup, was filled with cultivation soil and 15 rice seeds were sown.
as §2, with “the” for “the foot of”, “(20” for “(5”, “air dying,” for “2 days,”, “A in the same manner as in Test Example 1 and Test Example 2.” for “A.”
as §5, with “(3),” for “(2),”, “(3)” for “(2)”

In the case of `CNC(=O)c1cc(Cl)cc(C)c1NC(=O)c1cc(Br)nn1-c1ncccc1Cl` [Compound (1), chlorantraniliprole, reference compound], the “Control rate (%)” value (Pseudaletia separata [1]; 1.0 ppm) is reported as 78% and the “Control rate (%)” value (Pseudaletia separata [1]; 3.0 ppm) is reported as 87%.
In the case of `CNC(=O)c1cc(C#N)cc(C)c1NC(=O)c1cc(Br)nn1-c1ncccc1Cl` [Compound (2), cyantraniliprole, reference compound], the “Control rate (%)” value (Pseudaletia separata [2]; 1.0 ppm) is reported as 59%.
`CC(NC(=O)c1cc(Cl)cc(Br)c1NC(=O)c1cc(Br)nn1-c1ncccc1Cl)C1CC1` (stereo not drawn) [Compound (3), N-[2-bromo-4-chloro-6-[[α-methyl-(cyclopropylmethyl)amino]carbonyl]-phenyl]-3-bromo-1-(3-chloro-2-pyridinyl)-1H-pyrazole-5-carboxamide] was tested, and the “Control rate (%)” value (Pseudaletia separata [3]; 0.3 ppm) was 58%.
With `O=C(O)CCC(=O)NCCc1ccccc1` [Compound I, 4-oxo-4-[(2-phenylethyl)amino]-butyric acid] the “Control rate (%)” value (Pseudaletia separata [3]; 10 ppm) was 0%, the “Control rate (%)” value (Pseudaletia separata [3]; 30 ppm) was 0% and the “Control rate (%)” value (Pseudaletia separata [3]; 100 ppm) was 0%. For the same molecule, the “Control rate (%)” value (Pseudaletia separata [2]; 30 ppm) was 0%, the “Control rate (%)” value (Pseudaletia separata [2]; 100 ppm) was 0% and the “Control rate (%)” value (Pseudaletia separata [1]; 10 ppm) was 0%. For the same molecule, the “Control rate (%)” value (Pseudaletia separata [1]; 30 ppm) was 0% and the “Control rate (%)” value (Pseudaletia separata [1]; 100 ppm) was 0%.
